Results from patent publication US8436004B2, “Bicycloaniline derivative” (MSD K.K., priority 2007, dated 2013).
Counter-ions that a name gives are not always drawn.

Legend:
[1] = tested on: Cdc2 (Cdk1) tyrosine 15-phosphorylation in NCI-H1299 cells; test: Cdc2 (Cdk1) tyrosine 15-phosphorylation-inhibitory effect in camptothecin-treated NCI-H1299 cells (ELISA); type: cell-based; conditions: Homo sapiens; NCI-H1299, camptothecin 200 nM 16 hours, then test compound + nocodazole 8 hours; read-out: Cdc2-Y15 Phosphorylation-Inhibitory Effect (H1299, + camptothecin) (EC50)
Excerpt: Pharmacological Test 2 (Method of Determining Drug Potency with Cells (Cdc2 (Cdk1) Tyrosine 15-Phosphorylation-Inhibitory Effect))
Fetal bovine serum (FBS) was obtained from Morgate; media RPMI1640 and DMEM were from Invitrogen; camptothecin was from Sigma; gemcitabine was from Nippon Eli Lilly; nocodazole and protease inhibitor cocktail were from Sigma; rabbit anti-Cdc2 antibody and mouse anti-Cdc2 antibody were from Santa Cruz Biotechnology; rabbit anti-tyrosine 15-phosphorylated Cdc2 antibody and horseradish peroxidase-labeled anti-mouse IgG antibody were from Cell Signaling Technology; sure blue reserve TMB peroxidase substrate was from Kirkegaard and Perry Laboratories.
Human non-small cell lung cancer cells (NCI-H1299) and human colon cancer cells (WiDr) were obtained from American Type Culture Collection (ATCC).
In the method of using NCI-H1299 cells, the cells were suspended in a medium of 10% FBS-added RPMI1640, and the cell suspension was applied to a 96-well Nunclondelta-processed plastic plate (bought from Nunc), in an amount of 2000 cells/100 μL/well, in which the cells were incubated overnight in 5% CO2-95% air at 37° C. Camptothecin was dissolved in dimethylsulfoxide (DMSO), and diluted with a medium of 10% FBS-added RPMI1640, and then this was applied to the plate on which the cells had been previously sowed, in an amount of 50 μL/well in such a manner that the final concentration of camptothecin could be 200 nM. Then, the cells were incubated for 16 hours at 37° C. in 5% CO2-95% air. The test compound was stepwise diluted with DMSO, then diluted with 4000 nM nocodazole-containing, 10% FBS-added RPMI1640, and applied to the plate on which the camptothecin-treated cells had been sowed, in an amount of 50 μL/well. The cells were incubated for 8 hours at 37° C. in 5% CO2-95% air, then the culture was removed, and a cytolytic buffer was added to the plate in an amount of 100 μL/well, shaken at 4° C. for 2 hours, then frozen at −80° C., and thawed to give a cell solution. Cdc2 and tyrosine 15-phosphorylated Cdc2 in the cell solution were determined through enzyme-linked immunosorbent assay (ELISA), and the ratio of tyrosine 15-phosphorylated Cdc2 to Cdc2 was calculated to obtain the 50% phosphorylation-inhibitory concentration of the test compound to the cells (EC50, nM). The cytolytic buffer used herein is an aqueous solution containing 20 mM Hepes (pH 7.5), 150 mM sodium chloride, 1 mM disodium ethylenediaminetetraacetate, 0.1% polyoxyethylene (10) octylphenyl ether, 1% protease inhibitor cocktail, 1 mM dithiothreitol, 2 mM sodium orthovanadate, 10 mM sodium fluoride and 10 mM glycerol diphosphate. Cdc2 was determined through ELISA as follows: A rabbit anti-Cdc2 antibody solution, which had been diluted 200-fold with 50 mM carbonate-bicarbonate buffer (pH 9.6), was applied to a 96-well maxisorpimmuno plate (bought from Nunc), in an amount of 50 μL/well, and statically kept overnight at 4° C. so as to fix the antibody on the plate. Next, this was washed three times with phosphate-buffered physiological saline (PBS), and 5% bovine serum albumin-containing PBS (5% BSA/PBS) was added thereto in an amount of 300 μL/well, and statically kept at room temperature for 2 hours, and then again washed three times with PBS. A mouse anti-Cdc2 antibody solution that had been diluted 100-fold with 0.05% polyoxyethylene sorbitan monolaurate and 1% BSA-containing Tris-HCl-buffered physiological saline (1% BSA/TBS-T) was added to it in an amount of 50 μL/well, and the cell solution was added thereto in an amount of 5 μL/well and statically kept overnight at 4° C. Next, this was washed three times with 0.05% polyoxyethylene sorbitan monolaurate and 0.1% BSA-containing Tris-HCl-buffered physiological saline (0.1% BSA/TBS-T), and then a horseradish peroxidase-labeled anti-mouse IgG antibody solution that had been diluted 2000-fold with 1% BSA/TBS-T was added thereto in an amount of 70 μL/well, and statically kept at room temperature for 3 hours. […]

Wee1 kinase = target: T1, Wee1 kinase (Homo sapiens, UniProt P30291); test: Wee1 kinase-inhibitory effect (33P-ATP, Poly(Lys,Tyr) substrate, filter assay); type: biochemical; conditions: 10 μM ATP, 30° C., 30 minutes
T1 construct: made in house; host or cells: Sf9 insect cells (recombinant baculovirus)
Excerpt: Pharmacological Test 1 (Wee1 Kinase-Inhibitory Effect)
(1) Purification of Wee1 Kinase:
A cDNA of Wee1 kinase with […] (GST) fused at the amino terminal thereof was inserted into a baculovirus expression vector to construct a recombinant baculovirus, with which cells of an insect cell line Sf9 were infected for high expression therein. The infected cells were recovered and solubilized, and then the GST-tagged Wee1 kinase protein was adsorbed by a glutathion column, and eluted from the column with glutathion, and the active fraction was desalted in a desalting column to give a purified enzyme.
(2) Determination of Wee1 Kinase Activity:
In determination of the Wee1 kinase activity, a synthetic peptide, Poly(Lys,Tyr) Hydrobromide (Lys:Tyr (4:1)) bought from Sigma was used as the substrate.
The amount of the reaction liquid was 21.1 μL; and the composition of the reaction buffer was 50 mM Tris-HCl buffer (pH 7.4)/10 mM magnesium chloride/1 mM dithiothreitol. The purified Wee1 kinase, 2.5 μg of the substrate peptide, 10 μM of non-labeled adenosine triphosphate (ATP) and 1 μCi of [γ-^33P]-labeled ATP (2500 Ci/mmol or more) were added to it, and reacted at 30° C. for 30 minutes. Next, 10 μL of 350 mM phosphate buffer was added to the reaction system to stop the reaction. The substrate peptide was adsorbed by a P81 paper filter 96-well plate, then washed a few times with 130 mM phosphate buffer, and its radioactivity was counted with a liquid scintillation counter. The [γ-^33P]-labeled ATP was bought from Amersham Bioscience.
To add the test compound to the reaction system, the compound was diluted with dimethylsulfoxide (DMSO) to prepare a series of dilutions. 1.1 μL of each dilution was added to the reaction system. As a control, 1.1 μL of DMSO was added to the reaction system.

T1 sequence (P30291 whole entry): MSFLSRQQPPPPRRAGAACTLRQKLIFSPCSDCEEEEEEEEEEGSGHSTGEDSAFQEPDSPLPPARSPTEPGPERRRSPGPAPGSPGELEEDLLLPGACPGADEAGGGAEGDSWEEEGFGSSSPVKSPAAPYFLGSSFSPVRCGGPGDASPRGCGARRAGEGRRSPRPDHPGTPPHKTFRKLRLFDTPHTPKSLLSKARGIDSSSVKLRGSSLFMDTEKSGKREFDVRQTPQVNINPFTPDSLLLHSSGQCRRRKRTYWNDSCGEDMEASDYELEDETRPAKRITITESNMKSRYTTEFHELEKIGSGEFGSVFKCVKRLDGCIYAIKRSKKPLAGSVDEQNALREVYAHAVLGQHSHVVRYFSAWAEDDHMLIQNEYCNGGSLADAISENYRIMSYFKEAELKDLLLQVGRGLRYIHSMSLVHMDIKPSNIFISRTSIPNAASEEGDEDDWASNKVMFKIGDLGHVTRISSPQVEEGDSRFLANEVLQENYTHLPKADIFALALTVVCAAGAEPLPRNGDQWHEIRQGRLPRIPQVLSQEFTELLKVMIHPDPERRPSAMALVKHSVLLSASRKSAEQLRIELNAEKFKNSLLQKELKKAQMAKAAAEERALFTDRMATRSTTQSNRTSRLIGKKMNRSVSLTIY

Row | Compound | EC50 [1] [nM] | IC50 (Wee1 kinase) [nM]
1 | CN1Cc2cc(Nc3ncc4c(=N)n(-c5c(Cl)cccc5Cl)c(=O)[nH]c4n3)ccc2C(C)(C)C1 [Example 2, 3-(2,6-dichlorophenyl)-4-imino-7-{[2,4,4-trimethyl-1,2,3,4-tetrahydroisoquinolin-7-yl]amino}-3,4-dihydropyrimido[4,5-d]pyrimidin-2(1H)-one] | 27 | 5.6
2 | CN1Cc2cc(Nc3ncc4c(=N)n(-c5c(Cl)cccc5Cl)c(=O)[nH]c4n3)ccc2C1(C)C [Example 7, 3-(2,6-dichlorophenyl)-4-imino-7-[(1,1,2-trimethyl-2,3-dihydro-1H-isoindol-5-yl)amino]-3,4-dihydropyrimido[4,5-d]pyrimidin-2(1H)-one] | 17 | 4.3
3 | CN1Cc2cc(Nc3ncc4c(=N)n(-c5c(Cl)cccc5Cl)c(=O)[nH]c4n3)ccc2C2(CC2)C1 [Example 1, 3-(2,6-dichlorophenyl)-4-imino-7-[(2′-methyl-2′,3′-dihydro-1′H-spiro[cyclopropane-1,4′-isoquinolin]-7′-yl)amino]-3,4-dihydropyrimido[4,5-d]pyrimidin-2(1H)-one dihydrochloride] | 19 | 5
